Assay results published in publication PMC8482806, “A Novel Blood-Brain Barrier-Permeable Chemotherapeutic Agent for the Treatment of Glioblastoma” (Cureus, 2021).

Tests used:
hLAT2 = molecular target: T1, hLAT2 (Homo sapiens, UniProt Q9UHI5); experiment: Substrate transport inhibition, [3H]-leucine uptake in LLC-PK1 cells expressing hLAT2; assay type: cell-based; conditions: [3H]-leucine, LLC-PK1 LAT2-expressing cells, 15 minutes at room temperature; read-out: IC50, inhibition of substrate transport (LAT2)
T1 construct: host or cells: LLC-PK1 (tetracycline-inducible, Invitrogen Gateway pT-REx System)
T1 sequence (Q9UHI5 1-535): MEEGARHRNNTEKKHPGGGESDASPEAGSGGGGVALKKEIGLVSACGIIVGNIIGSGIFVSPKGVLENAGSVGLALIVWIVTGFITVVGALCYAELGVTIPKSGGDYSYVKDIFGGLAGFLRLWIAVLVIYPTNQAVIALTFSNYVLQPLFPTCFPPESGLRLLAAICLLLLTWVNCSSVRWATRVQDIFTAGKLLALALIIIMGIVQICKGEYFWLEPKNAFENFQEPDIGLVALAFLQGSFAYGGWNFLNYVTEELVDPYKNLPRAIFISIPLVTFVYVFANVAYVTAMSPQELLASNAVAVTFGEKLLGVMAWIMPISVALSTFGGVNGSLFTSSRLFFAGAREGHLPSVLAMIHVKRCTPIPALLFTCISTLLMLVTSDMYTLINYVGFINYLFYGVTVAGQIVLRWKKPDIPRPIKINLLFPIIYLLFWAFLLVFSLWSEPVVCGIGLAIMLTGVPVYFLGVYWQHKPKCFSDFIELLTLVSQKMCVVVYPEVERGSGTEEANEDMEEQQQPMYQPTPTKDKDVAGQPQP
T1 sequence (P08195 1-529 partner): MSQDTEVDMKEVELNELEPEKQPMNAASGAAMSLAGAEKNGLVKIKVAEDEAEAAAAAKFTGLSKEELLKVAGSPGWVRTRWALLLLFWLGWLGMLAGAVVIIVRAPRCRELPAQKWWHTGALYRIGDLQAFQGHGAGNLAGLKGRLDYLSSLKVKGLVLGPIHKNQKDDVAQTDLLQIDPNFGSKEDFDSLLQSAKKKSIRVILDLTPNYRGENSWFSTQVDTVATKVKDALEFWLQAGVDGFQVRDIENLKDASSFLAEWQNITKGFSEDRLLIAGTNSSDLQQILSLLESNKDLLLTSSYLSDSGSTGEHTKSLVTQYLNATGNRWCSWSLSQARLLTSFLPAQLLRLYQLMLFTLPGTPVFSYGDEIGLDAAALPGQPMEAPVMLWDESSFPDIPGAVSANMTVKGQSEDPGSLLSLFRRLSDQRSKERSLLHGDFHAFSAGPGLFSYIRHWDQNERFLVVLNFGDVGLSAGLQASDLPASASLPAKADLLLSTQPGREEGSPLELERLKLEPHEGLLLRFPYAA
Experimental: Substrate transport inhibition studies were conducted with LLC-PK1 cells inducibly expressing either hLAT1 or hLAT2. Cells were plated in growth media with 1 μg/mL doxycycline at 30,000 cells/well in 96-well plates. Sixteen hours after plating, cells were treated with butyrate at a final concentration of 5 mM. The following day, cells were washed with PBS and incubated in the presence or absence of various concentrations of QBS10072S with 30,000 cpm/well of either [3H]-gabapentin (LAT1) or [3H]-leucine (LAT2) in PBS for 15 minutes at room temperature. The non-specific cell-bound activity was determined by the addition of 5 mM unlabeled gabapentin (LAT1) or leucine (LAT2). Unincorporated radioactivity was removed, and cells were washed three times with ice-cold PBS. Cells were lysed by adding scintillation fluid to each well, and cell-associated radioactivity was determined via scintillation counting using a multichannel 96-well plate reader (MicroBeta Trilux, Perkin Elmer, Waltham, MA). Data were expressed as the percent of specific radioactivity uptake in wells with no compound added. LC50s were determined by non-linear curve-fitting using GraphPad Prism (San Diego, CA).

[1] = test system: U251 intracerebral human GBM xenograft; experiment: U251 intracerebral human GBM xenograft in athymic mice (BLI, survival); assay type: in vivo, mouse
Experimental: Five-week-old female athymic mice (nu/nu, homozygous: Simonsen Laboratories, Gilroy, CA), housed under aseptic conditions, received intracranial tumor cell injection as previously described and as approved by the University of California San Francisco Institutional Animal Care and Use Committee, Protocol #: AN111064-03. Briefly, mice were anesthetized by intraperitoneal injection of ketamine (100 mg/kg) and xylazine (10 mg/kg) and injected with 3 μL of tumor cell suspension (300,000 cells total) into the right caudate-putamen. Coordinates: 3 mm to the right from bregma, on top of the coronal suture, and 3.5 mm depth. Injection rate: ~30 second/uL. For treatment studies, eight mice were used for each group for LN229 studies and nine mice per group for U251 studies. Treatments began when tumors entered the log-phase of growth as measured by luminescence, for the LN229 experiment on Day 21 and for U251 experiments on Day 14.
Dosing levels and frequency are described in the figure legends.
For bioluminescence imaging (BLI), mice were anesthetized as above, then administered 150 mg/kg of luciferin (D-luciferin potassium salt, Gold Biotechnology, St. Louis, MO) via intraperitoneal injection. Ten minutes after luciferin injection, mice were examined for tumor bioluminescence with an IVIS Lumina imaging station and Living Image software (Caliper Life Sciences, Alameda, CA), and regions of interest were recorded as photons per second per steradian per square cm.
Mice were anesthetized via inhalation of 2.5% isoflurane with 1 L of oxygen per minute for five minutes prior to being positioned on an irradiation platform located 16.3 cm from a cesium-137 source (JL Shepherd & Associates, San Fernando, CA). Eyes, respiratory tracts, and bodies were protected with lead shielding. Mice received whole-brain irradiation at a dose rate of 247 cGy/min until 1.5 Gy radiation had been administered. After irradiation, animals were monitored until recovery. Mice were irradiated once daily for five consecutive days. All mice received the first radiation dose when tumors were in a log-phase growth (Day 14) as determined by BLI.
Tumor-bearing mice were treated with temozolomide (TMZ) 4 mg/kg via oral gavage, starting on day 14 post U251 cell injection once daily for five days - concurrent therapy with RT. TMZ was obtained from the UCSF hospital pharmacy and formulated with the Ora-Plus suspending vehicle (Perrigo, Dublin, Ireland) with a working concentration of 1 mg/mL.

[2] = Microscopic evaluation of brain tissue after dosing rodents; assay type: in vivo; conditions: rodents dosed with high levels

## Cc1ccc(N(CCCl)CCCl)cc1C[C@H](N)CC(=O)O [QBS10072S, (+)-(3S)-amino-4-[5-[bis(2-chloroethyl)amino]-2-methyl-phenyl]butanoic acid]
hLAT2
  IC50: 1.1 mM
[1]; 10 mg/kg IV once a week for six weeks
  body weight loss over the course of the study: no significant body weight loss
[1]; 10 mg/kg IV once a week for six weeks, vehicle 37
  median survival time: 70 days
[1]; QBS10072S 10 mg/kg once a week for 4 weeks + RT 1.5 Gy daily for 5 days, vehicle 35
  median survival time: 64 days
[1]; QBS10072S alone, 10 mg/kg once a week for 4 weeks, vehicle 35
  median survival time: 45 days
[1]; day 35, 10 mg/kg IV once a week for six weeks
  tumor growth inhibition (TGI) vs. vehicle: 95%
[1]; day 35, QBS10072S alone, 10 mg/kg once a week for 4 weeks
  %TGI: 86%
[1]; day 35, combination of QBS10072S 10 mg/kg once a week for 4 weeks and RT 1.5 Gy once daily for 5 days
  %TGI: 96%
[2]
  alterations of the BBB, microscopic evaluation of brain tissue: no alterations of the BBB
